Reference: US20260216280A1, “COMPOSITION FOR PREVENTING AND TREATING ISCHEMIC CEREBROVASCULAR DISEASE COMPRISING GINTONIN” (Dongguk University Industry-Academic Cooperation Foundation, priority 2022, published 2026)

Tested on: HBMEC (Human Brain Microvascular Endothelial Cell)
Test: Nitric oxide production in HBMEC, gintonin pretreatment before NOS inhibitor
Format: cell-based
Conditions: 100 uM synthase inhibitor, 1 h, vs DMSO only
Experimental: First of all, HBMEC (Human Brain Microvascular Endothelial Cell) or imHBMEC (immortalized Human Brain Microvascular Endothelial Cell) were cultured in an appropriate culture medium under air conditions of 37° C., 5% carbon dioxide and 95% relative humidity. When the cells reached 80 to 90% confluency (average ~2 days), 10 ug/mL of gintonin was first pretreated and incubated for 1 hour, and then, a nitric oxide synthase (NOS) inhibitor was treated and incubated for another hour, then, the effect of changes in nitric oxide (NO) production was investigated. Afterwards, the concentration of nitric oxide synthase inhibitor was treated at 100 and 300 uM.

Structure (SMILES): COC(=O)[C@@H](N)CCCNC(=N)N[N+](=O)[O-].Cl [synthase inhibitor]
- reduction of nitric oxide (relative production): about 20%
